Where two headings read alike, the source gives them in different places.
Conditions: rcm bond, 15-membered ring, Grubbs II (0.15 equiv), DCM, 5.0 mM, 40.0 °C, 2.0 h

COC(=O)[C@@]12C[C@H]1/C=C\CCCCC[C@H](NC(=O)OC(C)(C)C)C(=O)N1C[C@H](Oc3nc(-c4ccccn4)nc4ccsc34)C[C@H]1C(=O)N2
ring closure, isolated yield (from C=CCCCCC[C@H](NC(=O)OC(C)(C)C)C(=O)N1C[C@H](Oc2nc(-c3ccccn3)nc3ccsc23)C[C@H]1C(=O)N[C@]1(C(=O)OC)C[C@H]1C=C): 25%

COC(=O)[C@@]12C[C@H]1/C=C\CCCCC[C@H](NC(=O)OC(C)(C)C)C(=O)N1C[C@H](Oc3nc(-c4ccccn4)nc4sccc34)C[C@H]1C(=O)N2
ring closure, isolated yield (from C=CCCCCC[C@H](NC(=O)OC(C)(C)C)C(=O)N1C[C@H](Oc2nc(-c3ccccn3)nc3sccc23)C[C@H]1C(=O)N[C@]1(C(=O)OC)C[C@H]1C=C): 38%

— patent publication US20070249637A1, “Inhibitors Of Hepatitis C Virus Protease, And Compositions And Treatments Using The Same” (priority 2004, published 2007)
